In patent US20220257557A1, “PHARMACEUTICAL COMPOSITION FOR PREVENTING OR TREATING NEUROLOGICAL DISEASES” (GLACEUM INC., priority 2019, published 2022):

Tests used:
[1] = biological target: T1, rePON1 (PON1, paraoxonase 1) (Homo sapiens, UniProt P27169); experiment: Prevention of inhibition of PON1 activity by oxidized linolenic acid (TBBL substrate); assay type: biochemical; conditions: for activity at 30 µM: 30 μM compound with rePON1 30 min, then oxidized linolenic acid 2 h, TBBL substrate, normal control 100, negative control 73.64; for extent to which inhibition of rePON1 activity was prevented, compared with glabridin: compound 30 μM vs glabridin 30 μM; for extent to which inhibition of rePON1 activity was prevented, compared with glabridin / inhibition of rePON1 activity by oxidized linolenic acid: result in words; for inhibition of rePON1 activity by oxidized linolenic acid: compound 30 μM
T1 construct: purchased Thermo Corp. RP-75678
Protocol: Based on the fact that the activity of PON1 is inhibited when PON1 is treated with oxidized linolenic acid, an experiment was conducted to confirm the prevention of inhibition of PON1 activity. The activity of PON1 was measured using TBBL (5-thiobutyl butyrolactones) as a substrate.
Specifically, after 9.6 μl of 50 mM Tris-HCl containing 1 mM CaCl2 was added to each of […] Eppendorf tubes, 0.2 μl of each of the compounds of Formulas III-1, IV-1, V-1, IV-2, V-2, II-1, IV-3, V-3, III-2, IV-4, V-4, II-2 and III-3 and glabridine was added to each tube so that the concentration thereof was 30 μM. 0.2 μl of rePON1 (RP-75678, Thermo Corp.) was added to each of the 12 tubes and mixed. Thereafter, each of the mixtures was allowed to react at room temperature for 30 minutes, and 0.5 μl of 1 mM oxidized linolenic acid (OX-LA) dissolved in DMSO was added thereto in order to inhibit rePON1 activity, followed by reaction at room temperature for 2 hours, thus preparing solutions (I).
25 μl of 0.5 mM DTNB dissolved in 50 mM Tris-HCl containing 1 mM CaCl2 was dispensed into each well of a 384-well plate, and then 10 μl of each of the solutions (I) was dispensed into each well, and 20 μl of 2 mM TBBL dissolved in 50 mM Tris-HCl containing 1 mM CaCl2 was added to each well, thus preparing samples. The absorbance of each of the samples at 420 nm was measured using a spectrometer (SpectraMax M2) at 37° C. every 2 minutes for 1 hour.
In addition, a negative control was prepared in the same manner as the above-described method, except that, for the preparation of a solution, 0.2 μl of DMSO was added instead of the compounds of Formulas III-1, IV-1, V-1, IV-2, V-2, II-1, IV-3, V-3, III-2, IV-4, V-4, II-2 and III-3 and glabridin. Furthermore, a normal control was prepared in the same manner as the above-described method, except that, for the preparation of a solution, 0.2 μl of DMSO was added instead of the above-described compounds and glabridin and that oxidized linolenic acid was not added. The absorbance of each of the negative control and the normal control was measured.
Using SoftMax Pro software, the activity of PON1 was calculated from the absorbance using the following Equation 1, and the results are shown in Table 1 below.
Activity=(absorbancesample−absorbanceblank)/(absorbancePON1−absorbanceblank)*100 [Equation 1]

[2] = test system: BV2 cells; experiment: iNOS and COX-2 expression after LPS (Western blot); assay type: cell-based; conditions: 3 h pretreatment (Table 3 amounts), LPS 1 μg/ml 24 h
Protocol: (§1) RAW264.7 cells or BV2 cells (5×10^5 cells/well) were dispensed in DMEM containing 10% heat-inactivated FBS, 10 IU/mL penicillin G, 100 μg/mL streptomycin and 2 mM L-glutamine and cultured in a 5% CO2 incubator at a temperature of 37° C.
(§2) The compound of Formula III-3, III-4, V-3, III-1, IV-1, V-1, IV-2, V-2 or II-2 was added to the RAW264.7 cells or BV2 cells, and the toxicities of the compounds were determined by MTT assay.
(§3) The pretreated cells of Experimental Example 4-1 were treated with 1 μg/ml of LPS for 24 hours, and then the expression levels of iNOS and COX-2 were observed through Western blot, and the production of NO and PGE2 was measured.

[3] = test system: RAW264.7 cells; experiment: iNOS and COX-2 expression after LPS (Western blot); assay type: cell-based; conditions: 3 h pretreatment (Table 3 amounts), LPS 1 μg/ml 24 h
Protocol: as §1, §2, §3

[4] = test system: BV2 cells; experiment: NO and PGE2 production after LPS; assay type: cell-based; conditions: 3 h pretreatment (Table 3 amounts), LPS 1 μg/ml 24 h
Protocol: as §1, §2, §3

[5] = test system: RAW264.7 cells; experiment: NO and PGE2 production after LPS; assay type: cell-based; conditions: 3 h pretreatment (Table 3 amounts), LPS 1 μg/ml 24 h
Protocol: as §1, §2, §3

[6] = test system: BV2 cells; experiment: IL-1β, IL-6 and TNF-α mRNA expression after LPS (RT-PCR); assay type: cell-based; conditions: 3 h pretreatment (Table 3 amounts), LPS 1 μg/ml 6 h
Protocol: as §1, §2
(§4) The pretreated cells of Experimental Example 4-1 were treated with 1 μg/ml of LPS for 6 hours, and then the mRNA expression level of the cytokine IL-1β, IL-6 or TNF-α produced in the inflammatory response was analyzed using RT-PCR.

[7] = test system: RAW264.7 cells; experiment: as above; assay type: cell-based; conditions: 3 h pretreatment (Table 3 amounts), LPS 1 μg/ml 6 h
Protocol: as §1, §2, §4

[8] = test system: RAW264.7 cells; experiment: Transcription of NF-κB protein (p65, p50) into nucleus after LPS (Western blot); assay type: cell-based; conditions: 3 h pretreatment (Table 3 amounts), LPS 1 μg/ml 1 h
Protocol: RAW264.7 cells or BV2 cells (5×10^5 cells/well) were dispensed in DMEM containing 10% heat-inactivated FBS, 10 IU/mL penicillin G, 100 μg/mL streptomycin and 2 mM L-glutamine and cultured in a 5% CO2 incubator at a temperature of 37° C. […]
(§5) The pretreated cells of Experimental Example 4-1 were treated with 1 μg/ml of LPS for 1 hour, and then the level of transcription of NF-κB protein into the nucleus of each of p65 and p50 was analyzed through Western blot.

[9] = test system: BV2 cells; experiment: as above; assay type: cell-based; conditions: 3 h pretreatment (Table 3 amounts), LPS 1 μg/ml 1 h
Protocol: as §1, §2, §5

T1 sequence (P27169 whole entry): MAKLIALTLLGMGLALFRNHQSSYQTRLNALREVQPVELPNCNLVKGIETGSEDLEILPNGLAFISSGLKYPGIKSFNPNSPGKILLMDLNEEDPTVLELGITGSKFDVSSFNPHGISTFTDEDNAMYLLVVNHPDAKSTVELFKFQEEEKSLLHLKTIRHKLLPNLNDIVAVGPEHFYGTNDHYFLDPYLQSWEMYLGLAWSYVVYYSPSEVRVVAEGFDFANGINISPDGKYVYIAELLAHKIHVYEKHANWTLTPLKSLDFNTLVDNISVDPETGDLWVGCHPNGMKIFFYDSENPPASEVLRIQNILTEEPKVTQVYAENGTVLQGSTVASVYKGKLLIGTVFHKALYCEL

Compound | extent to which inhibition of rePON1 activity was prevented, compared with glabridin [1] | inhibition of rePON1 activity by oxidized linolenic acid [1] | expression level of COX-2 [2] | expression level of iNOS [2] | expression level of COX-2 [3] | expression level of iNOS [3] | production of NO [4] | production of PGE2 [4] | production of NO [5] | production of PGE2 [5] | mRNA expression level of IL-1β [6] | mRNA expression level of IL-6 [6] | mRNA expression level of TNF-α [6] | mRNA expression level of IL-1β [7] | mRNA expression level of IL-6 [7] | mRNA expression level of TNF-α [7] | level of transcription of NF-κB protein into the nucleus, p50 [8] | level of transcription of NF-κB protein into the nucleus, p65 [8] | level of transcription of NF-κB protein into the nucleus, p50 [9] | level of transcription of NF-κB protein into the nucleus, p65 [9] | also measured
CCOc1ccc([C@H]2COc3c(ccc4c3CCC(C)(C)O4)C2)c(O)c1 [Formula V-1, (S)-2-(8,8-dimethyl-2,3,4,8,9,10-hexahydropyrano[2,3-f]chromen-3-yl)-5-ethoxyphenol] | greater | prevented | concentration-dependently decreased | concentration-dependently decreased | concentration-dependently decreased | concentration-dependently decreased | concentration-dependently decreased | concentration-dependently decreased | concentration-dependently decreased | concentration-dependently decreased | concentration-dependently decreased | concentration-dependently decreased | concentration-dependently decreased | concentration-dependently decreased | concentration-dependently decreased | concentration-dependently decreased | concentration-dependently decreased | concentration-dependently decreased | concentration-dependently decreased | concentration-dependently decreased | activity at 30 µM [1]: 80.7%
CCCc1ccc([C@H]2COc3c(ccc4c3CCC(C)(C)O4)C2)c(O)c1 [Formula V-3, (S)-2-(8,8-dimethyl-2,3,4,8,9,10-hexahydropyrano[2,3-f]chromen-3-yl)-5-propylphenol] | greater | prevented | concentration-dependently decreased | concentration-dependently decreased | concentration-dependently decreased | concentration-dependently decreased | concentration-dependently decreased | concentration-dependently decreased | concentration-dependently decreased | concentration-dependently decreased | concentration-dependently decreased | concentration-dependently decreased | concentration-dependently decreased | concentration-dependently decreased | concentration-dependently decreased | concentration-dependently decreased | concentration-dependently decreased | concentration-dependently decreased | concentration-dependently decreased | concentration-dependently decreased | activity at 30 µM [1]: 95.1%
CCCOc1ccc(C2=Cc3ccc4c(c3OC2)C=CC(C)(C)O4)c(O)c1 [Formula II-2, 2-(8,8-dimethyl-2,8-dihydropyrano[2,3-f]chromen-3-yl)-5-propoxyphenol] | greater | prevented | concentration-dependently decreased | concentration-dependently decreased | concentration-dependently decreased | concentration-dependently decreased | concentration-dependently decreased | concentration-dependently decreased | concentration-dependently decreased | concentration-dependently decreased | concentration-dependently decreased | concentration-dependently decreased | concentration-dependently decreased | concentration-dependently decreased | concentration-dependently decreased | concentration-dependently decreased | concentration-dependently decreased | concentration-dependently decreased | concentration-dependently decreased | concentration-dependently decreased | 
